The text below walks through data of patent US20230097157A1, “Bicyclic Pyridin-2-one and pyrimidin-4-one Derivatives Useful As a Factor XIa Inhibitors” (Janssen Pharmaceutica NV, priority 2021, published 2023).

Read-outs that look alike come from different tables or passages of the source.

In one test the target is human plasma kallikrein (Homo sapiens, UniProt P03952). Description: Kallikrein inhibition assay (FLINT) utilizing a quenched AMC peptide substrate Z-Gly-Pro-Arg-AMC. Format: biochemical. As to conditions: kinetic (KIN) reads, read-out: Kallikrein KIN Inh IC50. The essentials:
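Human plasma kallikrein (2 nM final) pre-incubated 30 min with compound (11-point 3-fold series, top 1 μM, 2% DMSO), then 50 μM Z-Gly-Pro-Arg-AMC added. Buffer 50 mM Tris pH 7.5, 100 mM NaCl, 5 mM CaCl2, BSA, CHAPS. AMC fluorescence (340/440 nm) read kinetically over 30 min at room temperature, IC50 by 4-parameter logistic fit.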

A further test has as its target Factor XIa (Homo sapiens, UniProt P03951). Description: Factor XIa inhibition assay (FLINT) utilizing a fluorophore-quencher pair peptide substrate 5Fam-[…]-K5Tamra. As to conditions: kinetic (KIN) reads, read-out: FXIa KIN Inh IC50. It counts as biochemical. Put shortly: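 FXIa was preincubated with compound for 30 min at room temperature in Tris pH 7.5 buffer containing CaCl2, BSA and CHAPS, then reacted with 15 μM quenched 5Fam/Tamra peptide substrate. Fluorescence (485/520 nm) was read kinetically every 5 min for 30 min.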

Chain of Factor XIa (P03951 388-625 limits assumed): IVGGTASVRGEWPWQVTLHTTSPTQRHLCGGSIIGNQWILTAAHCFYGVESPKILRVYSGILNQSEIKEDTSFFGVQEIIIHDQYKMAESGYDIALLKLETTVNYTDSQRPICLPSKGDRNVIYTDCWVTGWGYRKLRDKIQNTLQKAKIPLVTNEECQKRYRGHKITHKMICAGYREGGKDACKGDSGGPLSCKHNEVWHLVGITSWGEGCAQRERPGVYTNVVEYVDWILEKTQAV
Chain of Factor XIa (P03951 19-387 partner limits assumed): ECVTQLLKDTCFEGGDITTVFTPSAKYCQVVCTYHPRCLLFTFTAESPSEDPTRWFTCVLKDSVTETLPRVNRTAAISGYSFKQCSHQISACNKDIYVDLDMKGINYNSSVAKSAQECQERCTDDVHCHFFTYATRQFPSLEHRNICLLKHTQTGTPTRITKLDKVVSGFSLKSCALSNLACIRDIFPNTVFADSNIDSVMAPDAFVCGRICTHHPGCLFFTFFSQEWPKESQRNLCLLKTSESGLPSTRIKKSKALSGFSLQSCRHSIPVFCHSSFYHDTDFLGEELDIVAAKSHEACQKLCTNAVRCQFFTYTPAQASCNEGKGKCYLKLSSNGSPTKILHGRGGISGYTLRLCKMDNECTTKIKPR
Chain of human plasma kallikrein (P03952 391-638 limits assumed): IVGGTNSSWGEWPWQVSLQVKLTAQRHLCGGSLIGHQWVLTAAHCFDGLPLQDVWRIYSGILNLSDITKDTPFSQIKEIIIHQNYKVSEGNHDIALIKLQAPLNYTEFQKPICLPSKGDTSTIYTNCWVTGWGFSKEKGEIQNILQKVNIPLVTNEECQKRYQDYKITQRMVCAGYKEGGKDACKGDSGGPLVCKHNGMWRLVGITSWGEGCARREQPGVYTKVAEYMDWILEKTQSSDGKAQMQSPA
Chain of human plasma kallikrein (P03952 20-390 partner limits assumed): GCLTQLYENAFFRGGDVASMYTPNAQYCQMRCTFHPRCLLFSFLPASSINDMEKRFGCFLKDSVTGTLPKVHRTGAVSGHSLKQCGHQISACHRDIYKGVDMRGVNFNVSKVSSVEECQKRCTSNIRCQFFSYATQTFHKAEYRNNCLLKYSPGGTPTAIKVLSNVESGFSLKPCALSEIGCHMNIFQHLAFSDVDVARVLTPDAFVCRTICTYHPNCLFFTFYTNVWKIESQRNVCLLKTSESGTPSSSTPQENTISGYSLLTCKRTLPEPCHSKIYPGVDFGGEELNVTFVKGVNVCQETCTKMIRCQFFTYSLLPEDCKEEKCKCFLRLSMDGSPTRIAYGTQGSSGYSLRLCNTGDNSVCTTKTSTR

The term IC50 denotes the point on the concentration scale where inhibition reaches its midpoint. Take `C[C@@H]1C[C@@H](c2ncc(-c3ccc4c(=O)cc[nH]c4c3)[nH]2)n2c1nc(-c1c(-n3cnnn3)ccc(Cl)c1F)cc2=O` (relative stereo) [Example 101, 7-(2-((6S,8R)-2-(3-Chloro-2-fluoro-6-(1H-tetrazol-1-yl)phenyl)-8-methyl-4-oxo-4,6,7,8-tetrahydropyrrolo[1,2-a]pyrimidin-6-yl)-1H-imidazol-5-yl)quinolin-4(1H)-one]: the half-inhibitory concentration (IC50) worked out at 1.3 µM at human plasma kallikrein (unit μM) and 321 nM on Factor XIa (values in nM).

As for `C[C@H]1C[C@@H](c2ncc(-c3ncc(N)nc3C(F)F)[nH]2)n2c1nc(-c1c(-n3cnnn3)ccc(Cl)c1F)cc2=O` (relative stereo) [Example 86, (6*S,8*S)-6-(5-(5-Amino-3-(difluoromethyl)pyrazin-2-yl)-1H-imidazol-2-yl)-2-(3-chloro-2-fluoro-6-(1H-tetrazol-1-yl)phenyl)-8-methyl-7,8-dihydropyrrolo[1,2-a]pyrimidin-4(6H)-one], the IC50 on human plasma kallikrein (values in nM) was 0.819 µM; on Factor XIa (values in nM), more than 100 nM.

As for `COC(=O)Nc1ccc(-c2cnc([C@H]3C[C@@H](C)c4nc(-c5c(-n6cnnn6)ccc(Cl)c5F)cc(=O)n43)[nH]2)cn1` (stereo in doubt) [Example 117, Methyl (5-(2-((6*R,8*R)-2-(3-Chloro-2-fluoro-6-(1H-tetrazol-1-yl)phenyl)-8-methyl-4-oxo-4,6,7,8-tetrahydropyrrolo[1,2-a]pyrimidin-6-yl)-1H-imidazol-5-yl)pyridin-2-yl)carbamate], the IC50 at human plasma kallikrein (unit μM) was more than 10 µM; on Factor XIa (unit μM), 6100 nM.

As for `Cc1nc(N)sc1-c1cnc([C@H]2CC3(CC3)c3nc(-c4c(-n5cnnn5)ccc(Cl)c4F)cc(=O)n32)[nH]1` [Example 132, (R)-6′-(5-(2-Amino-4-methylthiazol-5-yl)-1H-imidazol-2-yl)-2′-(3-chloro-2-fluoro-6-(1H-tetrazol-1-yl)phenyl)-6′,7′-dihydro-4′H-spiro[cyclopropane-1,8′-pyrrolo[1,2-a]pyrimidin]-4′-one], the IC50 is more than 10 µM at human plasma kallikrein (unit μM) and more than 10000 nM on Factor XIa (unit μM).

For `Nc1ccc(-c2cnc([C@H]3CC4(CC4)c4cc(-c5c(-n6cnnn6)ccc(Cl)c5F)cc(=O)n43)[nH]2)c(F)n1` [Example 24, (R)-3′-(5-(6-Amino-2-fluoropyridin-3-yl)-1H-imidazol-2-yl)-7′-(3-chloro-2-fluoro-6-(1H-tetrazol-1-yl)phenyl)-2′,3′-dihydro-5′H-spiro[cyclopropane-1,1′-indolizin]-5′-one], the IC50 at human plasma kallikrein (unit μM) is more than 10 µM; on Factor XIa (unit μM) it was 1100 nM.

With `COc1cc(-c2cnc([C@H]3C[C@@H](C)c4nc(-c5c(-n6cnnn6)ccc(Cl)c5F)cc(=O)n43)[nH]2)ccn1` (stereo in doubt) [Example 99, (6*R,8*R)-2-(3-Chloro-2-fluoro-6-(1H-tetrazol-1-yl)phenyl)-6-(5-(2-methoxypyridin-4-yl)-1H-imidazol-2-yl)-8-methyl-7,8-dihydropyrrolo[1,2-a]pyrimidin-4(6H)-one], the IC50 at human plasma kallikrein (values in nM) came to 0.0238 µM; on Factor XIa (values in nM) it was 8 nM.

For `COC(=O)Nc1ccc(-c2cnc([C@@H]3C[C@@H](OC)c4cc(-c5c(-n6cnnn6)ccc(Cl)c5F)cc(=O)n43)[nH]2)cc1` [Example 152, Methyl (4-(2-((1R,3S)-7-(3-chloro-2-fluoro-6-(1H-tetrazol-1-yl)phenyl)-1-methoxy-5-oxo-1,2,3,5-tetrahydroindolizin-3-yl)-1H-imidazol-5-yl)phenyl)carbamate], the IC50 was found to be 0.0015 µM at human plasma kallikrein (values in nM) and 0.3 nM on Factor XIa (values in nM).

As for `COc1nc(N)cnc1-c1cnc([C@@H]2C[C@H](C)c3nc(-c4c(-n5cnnn5)ccc(Cl)c4F)cc(=O)n32)[nH]1` (relative stereo) [Example 84, (6*S,8*S)-6-(5-(5-Amino-3-methoxypyrazin-2-yl)-1H-imidazol-2-yl)-2-(3-chloro-2-fluoro-6-(1H-tetrazol-1-yl)phenyl)-8-methyl-7,8-dihydropyrrolo[1,2-a]pyrimidin-4(6H)-one], the values for the IC50 at human plasma kallikrein (values in nM) and on Factor XIa (values in nM) were 0.0319 µM and 5.7 nM, respectively.

In the case of `C[C@H]1C[C@@H](c2ncc(-c3ccc(N)nc3F)[nH]2)n2c1cc(-c1cc(Cl)ccc1-n1cnnn1)cc2=O` [Example 29, (1S,3S)-3-[5-(6-amino-2-fluoro-3-pyridyl)-1H-imidazol-2-yl]-7-[5-chloro-2-(tetrazol-1-yl)phenyl]-1-methyl-2,3-dihydro-1H-indolizin-5-one], the figures for the IC50 at human plasma kallikrein (values in nM) and at Factor XIa (values in nM) were 0.0395 µM and 0.5 nM, respectively.

`C[C@H]1C[C@@H](c2ncc(-c3ccc(N)nc3F)[nH]2)n2c1cc(-c1c(-n3cnnn3)ccc(Cl)c1F)cc2=O` [Example 67, (1S,3S)-3-(5-(6-Amino-2-fluoropyridin-3-yl)-1H-imidazol-2-yl)-7-(3-chloro-2-fluoro-6-(1H-tetrazol-1-yl)phenyl)-1-methyl-2,3-dihydroindolizin-5(1H)-one]: the IC50 is 0.0206 µM at human plasma kallikrein (values in nM) and 0.4 nM at Factor XIa (values in nM).

Take `COc1nccc(-c2cnc([C@@H]3C[C@H](C)c4nc(-c5c(-n6cnnn6)ccc(Cl)c5F)cc(=O)n43)[nH]2)n1` (relative stereo) [Example 103, (6S,8S)-2-(3-chloro-2-fluoro-6-(1H-tetrazol-1-yl)phenyl)-6-(5-(2-methoxypyrimidin-4-yl)-1H-imidazol-2-yl)-8-methyl-7,8-dihydropyrrolo[1,2-a]pyrimidin-4(6H)-one]: the IC50 at human plasma kallikrein (values in nM) was 0.151 µM; at Factor XIa (values in nM), 63.4 nM.

Take `COC(=O)Nc1ccc(-c2cnc([C@@H]3C[C@H](C)c4nc(-c5c(-n6cnnn6)ccc(Cl)c5F)cc(=O)n43)[nH]2)cc1` (stereo in doubt) [Example 125, Methyl (4-(2-((6*S,8*S)-2-(3-Chloro-2-fluoro-6-(1H-tetrazol-1-yl)phenyl)-8-methyl-4-oxo-4,6,7,8-tetrahydropyrrolo[1,2-a]pyrimidin-6-yl)-1H-imidazol-5-yl)phenyl)carbamate]: the IC50 on human plasma kallikrein (values in nM) amounted to 0.003 µM; at Factor XIa (values in nM), 0.5 nM.

In the case of `Nc1ncc(-c2cnc([C@H]3CC4(CC4)c4cc(-c5c(-n6cnnn6)ccc(Cl)c5F)cc(=O)n43)[nH]2)s1` [Example 17, (R)-3′-(5-(2-Aminothiazol-5-yl)-1H-imidazol-2-yl)-7′-(3-chloro-2-fluoro-6-(1H-tetrazol-1-yl)phenyl)-2′,3′-dihydro-5′H-spiro[cyclopropane-1,1′-indolizin]-5′-one], the IC50 worked out at 9.05 µM on human plasma kallikrein (unit μM) and 890 nM on Factor XIa (values in nM).

As to `C[C@H]1C[C@@H](c2ncc(-c3cc4c(cn3)NC(=O)CC4)[nH]2)n2c1cc(-c1c(-n3cnnn3)ccc(Cl)c1F)cc2=O` (single isomer, unassigned) [Example 92, 6-(2-((1S*,3S*)-7-(3-Chloro-2-fluoro-6-(1H-tetrazol-1-yl)phenyl)-1-methyl-5-oxo-1,2,3,5-tetrahydroindolizin-3-yl)-1H-imidazol-5-yl)-3,4-dihydro-1,7-naphthyridin-2(1H)-one], the IC50 came out at 0.0156 µM on human plasma kallikrein (values in nM) and 8.3 nM on Factor XIa (values in nM).

As for `[2H]C([2H])([2H])OC(=O)Nc1ccc(-c2cnc(C3CC4(CC4)c4nc(-c5c(-n6cnnn6)ccc(Cl)c5F)cc(=O)n43)[nH]2)cc1` (single isomer, unassigned) [Example 72, Methyl-d3 (S*)-(4-(2-(2′-(3-Chloro-2-fluoro-6-(1H-tetrazol-1-yl)phenyl)-4′-oxo-6′,7′-dihydro-4′H-spiro[cyclopropane-1,8′-pyrrolo[1,2-a]pyrimidin]-6′-yl)-1H-imidazol-5-yl)phenyl)carbamate], the IC50 at human plasma kallikrein (values in nM) was found to be 0.0033 µM; at Factor XIa (values in nM), 0.6 nM.
